Where two headings read alike, the source gives them in different places.
Experiments:
[1] = system: MCF-7 breast adenocarcinoma cells; experiment: MTT cell viability assay, MCF-7; type: cell-based, human
Method: (§1) The cell culture was made in flasks containing the medium appropriate to cell proliferation and allowing cell adhesion.
For this, the cells were seeded in 200 μl of complete cell medium in 96-well plates.
Cells were left to adhere for 24 h, followed by the addition of various dilutions in medium (200 μl) of the test compound. The test compound was first solubilized in DMSO and then in the cell medium and added to the cells at concentrations 1-100 μM. The final DMSO concentrations in the medium were lower than 0.5%. After 24 h and 72 h incubation, 37° C./5% CO2, the medium was substituted by 200 μl of the MTT solution (0.5 mg/ml in phosphate buffer—PBS). After 3-4 h incubation, the MTT solution was removed and the formazan crystals formed by the viable cells were dissolved in DMSO (200 μl). […] The cytotoxicity of the test compound was quantified calculating the drug concentration that inhibits the growth of 50% of cells (IC50) (GraphPad Prism software). The assessment was carried out with at least two independent experiments, each comprising six replicates per concentration.
Upon reaching the required confluence, the cells were harvested through addition of a 0.05% trypsin-EDTA solution (Gibco®). […] For this, the cells were seeded in 200 μl of complete cell medium in 96-well plates. […] Cells were left to adhere for 24 h, followed by the addition of various dilutions in medium (200 μl) of the test compound. The test compound was first solubilized in DMSO and then in the cell medium and added to the cells at concentrations 1-100 μM. The final DMSO concentrations in the medium were lower than 0.5%. […] The cytotoxicity of the test compound was quantified calculating the drug concentration that inhibits the growth of 50% of cells (IC50) (GraphPad Prism software). The assessment was carried out with at least two independent experiments, each comprising six replicates per concentration.

[2] = system: A2780 ovarian carcinoma cells; experiment: MTT cell viability assay, A2780; type: cell-based, human; settings: 72 h incubation, read-out: IC50 after a 72 h incubation, A2780
Method: (§2) The cultures of human breast (MDA-MB-231; ATCC) and ovarian (A2780, ATCC) carcinoma cell lines, were carried out in DMEM (Gibco) medium containing GlutaMax I (MDA-MB-231) or RPMI (A2780) and were completed with 10% FBS and 1% penicillin-streptomycin and kept at 37° C. in a humidified atmosphere containing 5% de CO2.
as §1
(§3) Upon reaching the required confluence, the cells were harvested through addition of a 0.05% trypsin-EDTA solution (Gibco®). […] For this, the cells were seeded in 200 μl of complete cell medium in 96-well plates. Cell density was 2×10^4 viable cells (MDA-MB-231 and A2780) per well.
(§4) Cells were left to adhere for 24 h, followed by the addition of various dilutions in medium (200 μl) of the test compound. The test compound was first solubilized in DMSO and then in the cell medium and added to the cells at concentrations 1-100 μM. The final DMSO concentrations in the medium were lower than 0.5%. After 24 h and 72 h incubation, 37° C./5% CO2, the medium was substituted by 200 μl of the MTT solution (0.5 mg/ml in phosphate buffer—PBS). After 3-4 h incubation, the MTT solution was removed and the formazan crystals formed by the viable cells were dissolved in DMSO (200 μl). Cell viability was assessed measuring the absorbance at 570 nm, using a plate spectrophotometer.
(§5) The cytotoxicity of the test compound was quantified calculating the drug concentration that inhibits the growth of 50% of cells (IC50) (GraphPad Prism software). The assessment was carried out with at least two independent experiments, each comprising six replicates per concentration. Dose-response curves of cell viability, after a 72 h incubation, are represented in the graphs of the FIGS. 4a and 4b.
Upon reaching the required confluence, the cells were harvested through addition of a 0.05% trypsin-EDTA solution (Gibco®). […] For this, the cells were seeded in 200 μl of complete cell medium in 96-well plates. […]

[3] = system: glioma U87 cells; settings: literature value (J. Biol. Chem. 1997, 272:14041-14044); read-out: value found in the literature for the glioma line; cited from earlier work
[4] = system: MDA-MB-231 human breast carcinoma cells; experiment: MTT cell viability assay, MDA-MB-231; type: cell-based; settings: 72 h incubation, read-out: IC50 after a 72 h incubation, MDA-MB-231
Method: as §2, §1, §3, §4, §5

[5] = system: MCF-7 cancer cell line; settings: 48 h of incubation, 10 μM
Excerpt: This assay is widely used to determine if cells are viable, apoptotic, or necrotic through differences in plasma membrane integrity and permeability. All in all, Annexin V/PI is a commonly used approach for studying cell death (Rieger et al. 2011).
Annexin V a marker of early apoptosis. […] Cisplatin was used as a positive control since it is known to induce apoptosis.

[6] = system: MCF-7 cancer cell line; settings: immunofluorescence, versus control cells
Excerpt: In this immunofluorescence assay, Alexa Fluor 488® phalloidin, which is a high-affinity filamentous actin (F-actin) probe conjugated to the green-fluorescent Alexa Fluor® 488 dye was used. In order to obtain nuclear staining DAPI (blue) was used (FIG. 9).

[7] = system: human cells of MCF-7 breast cancer; settings: 24 h incubation, versus untreated control cells (100%)
Excerpt: The intrinsic pathway is triggered by intracellular or extracellular stress. The signals that are transduced in response to these stimuli converge mainly to the mitochondria. This organelle integrates the cell death stimuli, inducing mitochondrial permeabilization and consequent release of pro-apoptotic molecules present therein.

[8] = 72 h incubation, read-out: IC50 after a 72 h incubation, MCF-7
[9] = 24 h incubation, read-out: IC50 after a 24 h incubation, MCF-7

Row | Compound | IC50 [1, 8] [µM] | IC50 [2] [µM] | IC50 [3] [µM] | IC50 [4] [µM] | percentage of Annexin V stained cells in comparison to the control [5] | type of cell death induced [5] | effect on cytoskeleton (F-actin filaments) [6] | IC50 [1, 9] [µM] | expression of catalase and SMAC diablo proteins [7]
1 | N.N.[Cl][Pt][Cl] [Cisplatin, reference compound] | 28 ± 6 | 2 ± 0.1 | 130 ± 53 | 39 ± 5 |  |  |  |  | 
2 | (2,2′-bipyridine-4,4′-diylbis{methylene}bis(2-{2-(2-hydroxypropanoyloxy)poly(lactic acid)-yl}propanoate)-k^2N,N′)(triphenylphosphane)(η^5-cyclopentadienyl)ruthenium(II) triflate [Compound 5] | 4.09 ± 1.97 | 3.4 ± 1.3 |  | 2.7 ± 0.55 | increase | apoptosis | cytoskeleton loses its organization | 4.25 ± 1.15 | decrease
3 | [(1,1′-{1,1′-(1,1′-{2,2′-Bipyridine-4,4′-diylbis(methylene)}bis(oxy)bis(1-oxopropane-2,1-diyl))bis(poly(lactic acid)-yl))}bis(oxy)bis(1-oxopropane-2,1-diyl)di(2S,3S,4S,5R,6R)-3,4,5,6-tetrahydroxyoxane-2-carboxylate)-k^2N,N′](triphenylphosphane)(η^5-cyclopentadienyl)-ruthenium(II) triflate [Compound 6] | 4.62 ± 1.15 | 2.2 ± 0.85 |  | 5.96 ± 3.25 | increase | apoptosis | cytoskeleton loses its organization | 5 ± 1.65 | decrease

Source: patent US11168179B2, “Macromolecular transition metal complexes for treatment of cancer and process for their preparation” (FACULDADE DE CIÉNCIAS DA UNIVERSIDADE DE LISBOA, priority 2014, dated 2021)
